Where “and” joins values, the source holds several entries; their conditions need not be identical. Equal entries are not always repeated. Where two headings read alike, the source gives them in different places.
Assays:
[1] = set-up: method as in Pu et al.; details: ref Pu et al., cited from earlier work
[2] = Metabolite extraction and analysis: parent PCB52 and metabolite fractions in tissues and urine after intratracheal [14C]-PCB52; assay type: in vivo, Sprague–Dawley rats; details: for PCB52 share of radioactivity over time / unmetabolized PCB52 share of radioactivity over time: over the 96 h period; for parent PCB52 share of radioactivity: maternal serum
From the text: A complex mixture of confirmed and putative metabolites of PCBs has been reported in the literature. To quantify the metabolites of PCB52 in maternal serum, the developing fetus, liver, brain, lung, and adipose tissue in this study, we employed a series of liquid–liquid extractions with solvents of increasing polarity to separate phenolic, methyl sulfones, and glucuronate/sulfated metabolites. , Recovery experiments used available standards including parent PCB52, 4-OH-PCB52, 3-MeSO2-PCB52, and 4-MeSO2-PCB52 metabolites in biological samples. The levels of the parent compound PCB52 and its extractable metabolites in the samples were determined using a validated liquid scintillation counting method coupled with gas chromatography-electron capture detection (GC-ECD), following our previous protocol. , Individual extractable metabolite was separated using a series of liquid–liquid extractions, employing a graded array of solvents with incrementing polarity to facilitate the partitioning of the analytes according to their inherent lipophilic characteristics (Figure S4). Subsequently, individual fractions were classified into respective categories, including the parent PCB moiety, hydroxylated PCBs (OH-PCBs), methyl sulfonyl PCBs (MeSO2–PCBs), conjugated metabolites, and unextractable components.
Tissue samples (200–400 mg wet weight) were prepared for analysis through a two-step homogenization using 2 mL of hexane/acetone solvent (50% vol/vol). The resultant solution was centrifuged, and then the pellet underwent two successive extractions with 1.5 mL of dichloromethane (DCM), chloroform/methanol (50:50 vol/vol), methanol/water (50:50 vol/vol), and water, respectively. The supernatant from the DCM extraction contained hydroxylated metabolites, whereas the top fractions from the methanol/water extraction had conjugated PCB metabolites. The resultant supernatant from the hexane/acetone extraction was rinsed with Milli-Q water, then extracted with a 0.5 M potassium hydroxide (KOH) solution in 50% ethanol, and triple rinsed with 400 μL of hexane. The hydrophobic fraction was further purified by rinsing with 1 M hydrochloric acid (400 μL). Simultaneously, a plausible MeSO2–PCBs fraction was extracted with 500 μL of anhydrous DMSO, followed by triple hexane rinses (3 × 400 μL). The residual hydrophobic phase was quantified as native PCB52. The quantification of cold PCB52, OH-PCBs (as MeO-PCB derivatives), and MeSO2-PCBs standards in spiked samples was initially performed on a gas chromatograph (Agilent 6890N) equipped with a 63Ni μ-ECD detector and SLB-5MS capillary column (60 m × 0.25 mm I.D., 0.25 μm film thickness; Supelco, St Louis, MO). Subsequently, individual separated fractionation from [^14C]-PCB52-exposed tissue samples was transferred to a prepared scintillation vial, followed by the addition of 10 mL of cocktail solution and analysis by scintillation counter. Any quantifiable radioactivity in the residual pellet was treated as unextractable compounds.

[3] = Pulmonary uptake, exhalation and excretion (mass balance) after intratracheal [14C]-PCB52; assay type: in vivo, Sprague–Dawley rats
Procedure: Female Sprague–Dawley rats (8 weeks old) weighing 237–269.7 g (mean = 247.5 g) (Envigo RMS, LLC, Indianapolis, IN) were used for this study. All animal experiments were performed following the protocols evaluated and approved by the University of Iowa Institutional Animal Care and Use Committee (approval number 3091097). After arrival, the animals were acclimated for 7 days. The animals were housed in a light and temperature-controlled environment with ad libitum access to food and water during quarantine and throughout the study. Timed pregnancy was achieved by harem mating. , Briefly, one male and two female rats were placed together in the evening and checked for vaginal plug the following day. If vaginal plug was present, the male was removed from the breeding cage, and the gestation day 0 (GD 0), 0-day post coitum was assigned. Pregnancies were confirmed by ultrasound scan at GD 9. The dams were exposed at GD 11 (±1 day) to capture the period of early organogenesis and hormonal function, which falls within week 3 of human embryonic development. ,− On the day of the experiment, pregnant rats were intratracheally administered an average of 40 μg (range, 35–45 μg) of [^14C]-PCB52 in 100 μL of exposure solution. Although the dose used in this study exceeded the tolerable daily intake (TDI) of PCBs for healthy individuals, which is 1.6 μg per day for an individual weighing 80 kg, the use of higher acute doses has been established in toxicological studies intended for risk assessment. The intratracheal instillation method was chosen for administering [^14C]-PCB52 to represent inhalation exposures, capture exhaled concentration, and efficiently utilize the limited availability of the cost-intensive radiolabeled PCB52. , Although inhalation exposure would better represent real-world exposures to airborne LC-PCBs, it would not allow us to accurately measure the amount of PCB52 exhaled into the air after exposure and is experimentally infeasible. […] All intratracheal instillations were done under light anesthesia, achieved using a 4% isoflurane concentration via a Fortec vaporizer (Cyprane, Keighley, UK). The animals recovered from anesthesia within 1 min. Subsequently, the animals were housed within a cylindrical glass chamber measuring 2 L in volume, equipped with glass drainage mechanisms to facilitate urine collection and a metallic screen to segregate urine from feces (as in Figure S1). Air was drawn from the chamber at 6.0 L/min through a cartridge containing the XAD-2 polymeric resin to capture any exhaled [^14C]-PCB52. For periods longer than 24 h postexposure, exposed dams were placed in a metabolic cage, which was fitted with a cartridge containing XAD-2 to capture exhaled [^14C]-PCB52 as in other end points.
Maternal blood, urine, and feces samples were collected immediately before and at 0.21, 1.67, 12, 24, 48, and 96 h after lung dosing. The exposed dams were euthanized using 4% isoflurane, followed by cervical dislocation and exsanguination via a cardiac puncture. Euthanasia was consistently performed during the light cycle. Dams’ fur was wiped and analyzed for radioactivity. Using the retro-orbital blood collection method, 0.5–1.5 mL ([…] of an exposed pregnant rat’s body weight) of blood sample was collected from each of the dams until the individual dams were necropsied for whole-body tissue harvesting. At the end of the exposure period, the chamber’s interior walls were rinsed separately with water and acetone/hexane (25 – 45 mL) and wiped to measure residues. From the collected whole blood samples, 100 μL were aliquoted into three vials each, and the remaining blood was allowed to clot at room temperature before being centrifuged to yield serum. The placentas, developing fetuses, and whole-body tissue samples were harvested immediately before exposure and at 0.21, 1.67, 12, 24, and 96 h postexposure. […]

[4] = Literature half-life of PCB52 following intravenous administration in male rats (Pu et al.); details: rat, in vivo, concentration–time data of Pu et al., read-out: half-life when Pu et al. data are fitted to a two-compartmental PK model

Clc1ccc(Cl)c(-c2cc(Cl)ccc2Cl)c1 [PCB52, 2,2′,5,5′-Tetrachlorobiphenyl]
half-life ([1]; intravenous administration in male rats): ~240 h
half-life estimate ([1]; intravenous, male rats, measured only up to 72 h postdosing): 241 h
PCB52 share of radioactivity over time ([2]; adipose tissue): 66.0 to 96.8%
unmetabolized PCB52 share of radioactivity over time ([2]; brain): 74.4 to 60.2%
PCB52 share of radioactivity over time ([2]; fetal tissues): 54.1 to 27.7%
unmetabolized PCB52 share of radioactivity over time ([2]; liver): 64.0 to 37.3%
parent PCB52 share of radioactivity ([2]; 0.21 h): 69.4%
parent PCB52 share of radioactivity ([2]; 96 h): 6.8%
PCB52 share of radioactivity over time ([2]; placenta): 67.8 to 28.6%
parent compound in urine ([2]; urine): no detectable parent compound
dose retained ([3]; after 96 h): 41.1%
elimination through feces ([3]; at 96 h postexposure): 42.5%
elimination through urine ([3]; at 96 h postexposure): 14.5%
total elimination ([3]; at 96 h postexposure): 58.9%
exhaled proportion of the administered dose ([3]; by 96 h postexposure): 1.33 ± 0.51%
average lung uptake (administered dose distributed to the systemic circulation) ([3]; intratracheal administration): 99.4 ± 0.5% and 99.40 ± 0.51%
half-life [4]: 36 to 48 h
